In the kinase profiling compilation of Christmann-Franck et al. (2016):
Several values for one entry are separate records, joined by “and”; a condition that tells them apart may be missing. Equal values may be shown once.

Assays:
Assay in all cases: radiometric filter-binding kinase assay, Kinase HotSpot
Conditions in all cases: compound 0.5 µM; ATP 10 µM
ACVR1B (human) = ACVR1B (human) (UniProt P36896)
AKT1 (human) = AKT1 (human) (UniProt P31749)
AXL (human) = AXL (human) (UniProt P30530)
CAMK1G (human) = CAMK1G (human) (UniProt Q96NX5)
Sequence of CAMK1G (human) (Q96NX5 whole entry, looked up): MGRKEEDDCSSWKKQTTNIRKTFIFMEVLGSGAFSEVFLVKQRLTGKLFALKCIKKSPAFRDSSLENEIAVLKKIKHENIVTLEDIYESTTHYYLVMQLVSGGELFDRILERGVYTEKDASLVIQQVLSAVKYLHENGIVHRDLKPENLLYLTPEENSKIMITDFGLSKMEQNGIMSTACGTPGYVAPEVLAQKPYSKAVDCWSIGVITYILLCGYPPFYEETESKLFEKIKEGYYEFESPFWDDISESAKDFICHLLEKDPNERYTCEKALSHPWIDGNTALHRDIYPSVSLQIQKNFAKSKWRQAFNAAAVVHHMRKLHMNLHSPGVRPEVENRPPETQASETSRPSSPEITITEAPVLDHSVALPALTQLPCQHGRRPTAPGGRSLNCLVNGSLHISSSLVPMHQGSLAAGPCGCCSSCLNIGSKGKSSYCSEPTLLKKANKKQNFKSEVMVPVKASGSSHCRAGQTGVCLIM

CAMK2A (human) = CAMK2A (human) (UniProt Q9UQM7)
Sequence of CAMK2A (human) (Q9UQM7 whole entry, looked up): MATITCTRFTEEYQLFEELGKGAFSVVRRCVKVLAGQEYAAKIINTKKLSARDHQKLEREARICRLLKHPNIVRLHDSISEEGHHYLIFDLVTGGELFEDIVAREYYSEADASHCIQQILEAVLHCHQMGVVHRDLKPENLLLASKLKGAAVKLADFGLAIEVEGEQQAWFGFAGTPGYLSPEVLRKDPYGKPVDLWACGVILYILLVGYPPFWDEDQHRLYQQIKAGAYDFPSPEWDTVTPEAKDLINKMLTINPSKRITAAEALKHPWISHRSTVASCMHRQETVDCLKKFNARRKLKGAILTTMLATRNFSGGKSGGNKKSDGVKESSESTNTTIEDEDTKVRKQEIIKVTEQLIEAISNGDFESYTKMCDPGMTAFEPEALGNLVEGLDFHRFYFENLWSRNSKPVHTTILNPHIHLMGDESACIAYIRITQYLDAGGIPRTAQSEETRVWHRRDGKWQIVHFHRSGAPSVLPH

CAMK2B (human) = CAMK2B (human) (UniProt Q13554)
CAMK4 (human) = CAMK4 (human) (UniProt Q16566)
CDC42BPB (human) = CDC42BPB (human) (UniProt Q9Y5S2)
Sequence of CDC42BPB (human) (Q9Y5S2 whole entry, looked up): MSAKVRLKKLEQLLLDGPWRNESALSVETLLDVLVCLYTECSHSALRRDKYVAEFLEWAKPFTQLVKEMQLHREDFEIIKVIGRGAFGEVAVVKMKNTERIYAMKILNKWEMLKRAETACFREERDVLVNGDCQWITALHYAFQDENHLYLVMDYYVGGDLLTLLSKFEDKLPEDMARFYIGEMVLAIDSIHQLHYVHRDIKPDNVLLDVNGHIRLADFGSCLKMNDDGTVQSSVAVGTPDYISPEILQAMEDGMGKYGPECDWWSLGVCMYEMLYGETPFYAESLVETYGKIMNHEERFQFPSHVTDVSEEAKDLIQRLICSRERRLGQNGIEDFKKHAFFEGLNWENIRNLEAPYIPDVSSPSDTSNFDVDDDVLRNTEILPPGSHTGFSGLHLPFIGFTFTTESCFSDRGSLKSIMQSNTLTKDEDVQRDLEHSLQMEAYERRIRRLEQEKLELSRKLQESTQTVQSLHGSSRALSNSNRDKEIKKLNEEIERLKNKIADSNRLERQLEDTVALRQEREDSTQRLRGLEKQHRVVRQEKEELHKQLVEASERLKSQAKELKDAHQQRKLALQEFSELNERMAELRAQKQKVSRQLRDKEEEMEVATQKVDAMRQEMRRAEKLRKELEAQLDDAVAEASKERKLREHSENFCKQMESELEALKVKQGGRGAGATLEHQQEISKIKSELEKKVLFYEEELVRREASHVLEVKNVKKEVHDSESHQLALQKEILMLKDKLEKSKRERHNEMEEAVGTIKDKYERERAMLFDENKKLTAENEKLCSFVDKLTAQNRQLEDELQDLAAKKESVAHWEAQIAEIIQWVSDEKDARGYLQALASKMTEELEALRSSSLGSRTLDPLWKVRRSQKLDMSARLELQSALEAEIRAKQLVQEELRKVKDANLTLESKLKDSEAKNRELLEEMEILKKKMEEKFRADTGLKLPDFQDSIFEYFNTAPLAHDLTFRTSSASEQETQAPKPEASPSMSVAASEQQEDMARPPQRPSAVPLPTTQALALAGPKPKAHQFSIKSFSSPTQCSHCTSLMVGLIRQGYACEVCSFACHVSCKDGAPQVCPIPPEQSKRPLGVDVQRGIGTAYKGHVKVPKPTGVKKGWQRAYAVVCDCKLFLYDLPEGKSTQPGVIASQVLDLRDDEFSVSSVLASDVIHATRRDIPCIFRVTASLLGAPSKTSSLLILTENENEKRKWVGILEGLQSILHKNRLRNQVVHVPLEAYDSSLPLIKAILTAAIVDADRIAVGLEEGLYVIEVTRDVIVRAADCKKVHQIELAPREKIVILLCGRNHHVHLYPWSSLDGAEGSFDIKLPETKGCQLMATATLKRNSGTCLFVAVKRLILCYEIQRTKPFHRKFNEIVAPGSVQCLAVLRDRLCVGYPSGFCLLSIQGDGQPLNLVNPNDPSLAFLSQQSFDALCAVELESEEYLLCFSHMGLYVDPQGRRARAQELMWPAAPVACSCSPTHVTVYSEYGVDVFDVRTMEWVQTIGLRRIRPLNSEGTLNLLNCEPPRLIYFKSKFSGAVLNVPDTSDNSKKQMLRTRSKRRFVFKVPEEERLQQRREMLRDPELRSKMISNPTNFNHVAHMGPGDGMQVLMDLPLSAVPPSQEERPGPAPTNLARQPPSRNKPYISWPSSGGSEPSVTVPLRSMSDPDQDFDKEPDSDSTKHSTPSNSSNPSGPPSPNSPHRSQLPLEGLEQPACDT

CSNK2A1 (human) = CSNK2A1 (human) (UniProt P68400)
DAPK3 (human) = DAPK3 (human) (UniProt O43293)
GSK3A (human) = GSK3A (human) (UniProt P49840)
GSK3B (human) = GSK3B (human) (UniProt P49841)
JAK3 JH1 JH2 (human) = JAK3 JH1 JH2 (human) (UniProt P52333)
KDR (human) = KDR (human) (UniProt P35968)
LTK (human) = LTK (human) (UniProt P29376)
Sequence of LTK (human) (P29376 whole entry, looked up): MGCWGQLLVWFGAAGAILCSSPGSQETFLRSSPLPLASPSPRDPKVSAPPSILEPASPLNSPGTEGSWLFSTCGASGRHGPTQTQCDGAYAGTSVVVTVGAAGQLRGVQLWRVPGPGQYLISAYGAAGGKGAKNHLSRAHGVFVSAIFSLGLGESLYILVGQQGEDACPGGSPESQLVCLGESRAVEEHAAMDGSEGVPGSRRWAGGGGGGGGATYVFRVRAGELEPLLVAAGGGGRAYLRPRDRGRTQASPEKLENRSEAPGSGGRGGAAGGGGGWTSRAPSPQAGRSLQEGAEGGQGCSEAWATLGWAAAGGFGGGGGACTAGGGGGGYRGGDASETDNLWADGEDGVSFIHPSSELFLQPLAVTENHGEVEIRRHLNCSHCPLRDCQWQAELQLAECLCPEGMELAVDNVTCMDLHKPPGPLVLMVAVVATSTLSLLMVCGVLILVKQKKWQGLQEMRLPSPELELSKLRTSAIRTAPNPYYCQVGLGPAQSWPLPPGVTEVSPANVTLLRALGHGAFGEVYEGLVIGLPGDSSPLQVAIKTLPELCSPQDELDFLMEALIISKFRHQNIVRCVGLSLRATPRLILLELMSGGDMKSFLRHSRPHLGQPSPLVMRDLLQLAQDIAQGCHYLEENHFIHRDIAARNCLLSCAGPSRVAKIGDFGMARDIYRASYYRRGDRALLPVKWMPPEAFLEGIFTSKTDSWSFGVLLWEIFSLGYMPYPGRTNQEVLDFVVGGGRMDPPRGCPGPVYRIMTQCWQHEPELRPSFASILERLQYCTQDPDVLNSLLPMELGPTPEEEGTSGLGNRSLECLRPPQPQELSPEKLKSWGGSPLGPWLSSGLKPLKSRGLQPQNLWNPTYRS

MAP2K2 (human) = MAP2K2 (human) (UniProt P36507)
MAPK12 (human) = MAPK12 (human) (UniProt P53778)
MAPK3 (human) = MAPK3 (human) (UniProt P27361)
MAPK8 (human) = MAPK8 (human) (UniProt P45983)
MAPKAPK3 (human) = MAPKAPK3 (human) (UniProt Q16644)
MARK3 (human) = MARK3 (human) (UniProt P27448)
MST4 (human) = MST4 (human) (UniProt Q9P289)
NEK4 (human) = NEK4 (human) (UniProt P51957)
Sequence of NEK4 (human) (P51957 whole entry, looked up): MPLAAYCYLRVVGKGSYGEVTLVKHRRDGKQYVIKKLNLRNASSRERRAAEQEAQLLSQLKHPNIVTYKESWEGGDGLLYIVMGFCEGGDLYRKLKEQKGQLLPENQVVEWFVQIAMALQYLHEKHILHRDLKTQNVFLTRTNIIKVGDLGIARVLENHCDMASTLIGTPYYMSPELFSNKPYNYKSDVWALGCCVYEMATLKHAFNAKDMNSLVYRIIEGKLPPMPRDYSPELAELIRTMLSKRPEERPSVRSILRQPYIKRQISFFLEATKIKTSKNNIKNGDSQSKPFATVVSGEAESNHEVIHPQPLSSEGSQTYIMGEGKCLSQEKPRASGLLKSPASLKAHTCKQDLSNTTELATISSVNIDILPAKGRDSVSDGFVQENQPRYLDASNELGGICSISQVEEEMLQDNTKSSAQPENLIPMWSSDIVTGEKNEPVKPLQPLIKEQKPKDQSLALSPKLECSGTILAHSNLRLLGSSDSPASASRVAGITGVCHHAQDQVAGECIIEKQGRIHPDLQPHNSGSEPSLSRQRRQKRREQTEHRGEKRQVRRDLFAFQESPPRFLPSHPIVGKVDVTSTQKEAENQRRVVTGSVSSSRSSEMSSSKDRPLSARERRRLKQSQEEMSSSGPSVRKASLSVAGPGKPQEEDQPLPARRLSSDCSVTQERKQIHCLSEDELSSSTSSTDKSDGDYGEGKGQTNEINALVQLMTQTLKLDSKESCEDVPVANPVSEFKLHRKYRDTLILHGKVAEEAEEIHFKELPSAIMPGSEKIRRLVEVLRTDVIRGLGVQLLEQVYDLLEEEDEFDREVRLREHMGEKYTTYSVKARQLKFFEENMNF

NTRK1 (human) = NTRK1 (human) (UniProt P04629)
NTRK3 (human) = NTRK3 (human) (UniProt Q16288)
NUAK2 (human) = NUAK2 (human) (UniProt Q9H093)
PAK7 (human) = PAK7 (human) (UniProt Q9P286)
PLK3 (human) = PLK3 (human) (UniProt Q9H4B4)
PRKACA (human) = PRKACA (human) (UniProt P17612)
PRKCB2 (human) = PRKCB2 (human) (UniProt P05771)
PRKG1 (human) = PRKG1 (human) (UniProt Q13976)
Sequence of PRKG1 (human) (Q13976 whole entry, looked up): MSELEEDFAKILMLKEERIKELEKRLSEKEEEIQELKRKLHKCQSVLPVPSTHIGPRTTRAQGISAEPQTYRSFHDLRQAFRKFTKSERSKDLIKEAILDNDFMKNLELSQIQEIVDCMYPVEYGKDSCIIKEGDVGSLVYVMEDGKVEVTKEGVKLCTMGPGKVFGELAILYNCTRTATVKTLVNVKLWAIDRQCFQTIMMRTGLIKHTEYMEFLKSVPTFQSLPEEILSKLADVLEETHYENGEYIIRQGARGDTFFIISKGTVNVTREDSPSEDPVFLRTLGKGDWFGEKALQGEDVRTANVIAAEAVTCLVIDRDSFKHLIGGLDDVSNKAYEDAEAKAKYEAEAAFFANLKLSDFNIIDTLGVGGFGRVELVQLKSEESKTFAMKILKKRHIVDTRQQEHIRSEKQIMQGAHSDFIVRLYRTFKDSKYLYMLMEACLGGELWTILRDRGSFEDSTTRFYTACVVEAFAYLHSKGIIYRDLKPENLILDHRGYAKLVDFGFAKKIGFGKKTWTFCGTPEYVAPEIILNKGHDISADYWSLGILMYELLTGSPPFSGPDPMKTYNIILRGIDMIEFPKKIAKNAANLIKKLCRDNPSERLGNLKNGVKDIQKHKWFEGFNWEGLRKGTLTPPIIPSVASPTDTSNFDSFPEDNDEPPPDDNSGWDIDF

PTK2 (human) = PTK2 (human) (UniProt Q05397)
ROCK1 (human) = ROCK1 (human) (UniProt Q13464)
RPS6KA2 KD1 KD2 (human) = RPS6KA2 KD1 KD2 (human) (UniProt Q15349)
SLK (human) = SLK (human) (UniProt Q9H2G2)
SRPK1 (human) = SRPK1 (human) (UniProt Q96SB4)
STK33 (human) = STK33 (human) (UniProt Q9BYT3)
TEK (human) = TEK (human) (UniProt Q02763)
TNK2 (human) = TNK2 (human) (UniProt Q07912)
TSSK1B (human) = TSSK1B (human) (UniProt Q9BXA7)
[1] = molecular target: TYK2 JH1 catalytic (human) (UniProt P29597)
WEE1 (human) = WEE1 (human) (UniProt P30291)

Compound `Cc1nc(-c2ccccc2)c(-c2ccncc2)o1` has a residual activity (ACVR1B (human)) of 99.3%, a residual activity (AKT1 (human)) of 102% and a residual activity (AXL (human)) of 91.1%. It also gave a residual activity (CAMK1G (human)) of 92.8%, a residual activity (CAMK2A (human)) of 104% and a residual activity (CAMK2B (human)) of 95.9%. It also gave a residual activity (CAMK4 (human)) of 97.2%, a residual activity (CDC42BPB (human)) of 101% and a residual activity (CSNK2A1 (human)) of 109%. The residual activity (DAPK3 (human)) was 101%, the residual activity (GSK3A (human)) was 112% and the residual activity (GSK3B (human)) was 105%. For the same compound, the residual activity (JAK3 JH1 JH2 (human)) was 90.7%, the residual activity (KDR (human)) was 85.2% and the residual activity (LTK (human)) was 107%. For the same compound, the residual activity (MAP2K2 (human)) was 106%, the residual activity (MAPK12 (human)) was 105% and the residual activity (MAPK3 (human)) was 103%. The residual activity (MAPK8 (human)) was 99.5%, the residual activity (MAPKAPK3 (human)) was 94.7% and the residual activity (MARK3 (human)) was 107%. For the same compound, the residual activity (MST4 (human)) was 114%, the residual activity (NEK4 (human)) was 100% and the residual activity (NTRK1 (human)) was 94.3%. The residual activity (NTRK3 (human)) was 105%, the residual activity (NUAK2 (human)) was 128% and the residual activity (PAK7 (human)) was 96.1%. It also gave a residual activity (PLK3 (human)) of 95.4%, a residual activity (PRKACA (human)) of 98.9% and a residual activity (PRKCB2 (human)) of 88.4%. For the same compound, the residual activity (PRKG1 (human)) was 90.5% and 96.1%, the residual activity (PTK2 (human)) was 106% and the residual activity (ROCK1 (human)) was 99.8%. It also gave a residual activity (RPS6KA2 KD1 KD2 (human)) of 93%, a residual activity (SLK (human)) of 101% and a residual activity (SRPK1 (human)) of 101%. It also gave a residual activity (STK33 (human)) of 99.3%, a residual activity (TEK (human)) of 101% and a residual activity (TNK2 (human)) of 97.7%. The residual activity (TSSK1B (human)) was 108%, the residual activity [1] was 109% and the residual activity (WEE1 (human)) was 91.9%.

`COc1ccc(Cl)cc1NC(=O)Nc1cc(C)nc2ccccc12` gave a residual activity (ACVR1B (human)) of 97.4%, a residual activity (AKT1 (human)) of 95.8% and a residual activity (AXL (human)) of 94%. For the same compound, the residual activity (CAMK1G (human)) was 102%, the residual activity (CAMK2A (human)) was 101% and the residual activity (CAMK2B (human)) was 103%. It also gave a residual activity (CAMK4 (human)) of 93.6%, a residual activity (CDC42BPB (human)) of 94.4% and a residual activity (CSNK2A1 (human)) of 97.9%. For the same compound, the residual activity (DAPK3 (human)) was 100%, the residual activity (GSK3A (human)) was 124% and the residual activity (GSK3B (human)) was 91.6%. For the same compound, the residual activity (JAK3 JH1 JH2 (human)) was 103%, the residual activity (KDR (human)) was 92.8% and the residual activity (LTK (human)) was 87.3%. The residual activity (MAP2K2 (human)) was 94.1%, the residual activity (MAPK12 (human)) was 101% and the residual activity (MAPK3 (human)) was 94.6%. The residual activity (MAPK8 (human)) was 104%, the residual activity (MAPKAPK3 (human)) was 101% and the residual activity (MARK3 (human)) was 126%. It also gave a residual activity (MST4 (human)) of 77.6%, a residual activity (NEK4 (human)) of 92% and a residual activity (NTRK1 (human)) of 92.5%. The residual activity (NTRK3 (human)) was 102%, the residual activity (NUAK2 (human)) was 100% and the residual activity (PAK7 (human)) was 85.1%. The residual activity (PLK3 (human)) was 100%, the residual activity (PRKACA (human)) was 101% and the residual activity (PRKCB2 (human)) was 109%. The residual activity (PRKG1 (human)) was 108% and 97.5%, the residual activity (PTK2 (human)) was 97.3% and the residual activity (ROCK1 (human)) was 100%. For the same compound, the residual activity (RPS6KA2 KD1 KD2 (human)) was 99.8%, the residual activity (SLK (human)) was 98.8% and the residual activity (SRPK1 (human)) was 82.5%. It also gave a residual activity (STK33 (human)) of 103%, a residual activity (TEK (human)) of 96.8% and a residual activity (TNK2 (human)) of 102%. It also gave a residual activity (TSSK1B (human)) of 94.6%, a residual activity [1] of 99.7% and a residual activity (WEE1 (human)) of 89%.
